This is an account of results in US20250177303A1, “A DRUG NANOCARRIER SYSTEM TO DELIVER A COMBINATION OF TLR AGONISTS AND/OR A LIPOXIN PLUS IMMUNOGENIC CELL DEATH INDUCING CHEMOTHERAPEUTIC AGENTS FOR CANCER IMMUNOTHERAPY” (The Regents of the University of California, priority 2022, published 2025).

“Also recorded” adds a separate entry of the source.

The subject of data set [1] is TGF-β activated hPSCs. In words: IL-6 secretion from TGF-β activated human pancreatic stellate cells (ELISA). The format is cell-based. The settings on record: 1-100 nM LXA4, 48 h, TGF-β 20 ng/mL. As to the method: HPaSteCs were seeded at 2500 cells/well in a 96-well plate and activated with TGF-p (20 ng/mL) overnight. The next day, hPSCs were treated with 1-100 nM of LXA4 in free and liposomal form. After 48 h of incubation, the supernatant was collected and analysed for IL-6 secretion with ELISA. […] A possible explanation is provided by the schematic in FIG. 11, panel A.

For data set [2] the following is noted: cited from earlier work.
For data set [3], the system named is RAW264.7 macrophages. The data set can be described thus: RAW264.7 macrophage activation (CD80 flow cytometry, IL-12p40 and TNF-α ELISA). The format is cell-based, murine. The conditions noted are these: RAW264.7, 10 μM, 21 h. As to the method: (§1) Having confirmed effective intracellular delivery of TLR7 activation, the next task was to determine the effect of the 3M-silicasome in the ex vivo activation of macrophages and DCs. These assays were performed in RAW264.7 macrophages and murine bone marrow-derived dendritic cells (BMDCs). RAW264.7 and BMDCs were treated with 10 μM each of R848 (positive control), free 3M-052, or the 3M-silicasome for 21 hours before assessing CD80 expression (FIG. 16, panels C and E). […] We also quantified the release of two key pro-inflammatory cytokines, IL-12p40 and TNF-α by ELISA in the same cell types, using similar stimuli.
RAW264.7 cells (1×10^5 cells/well) were cultured in 48-well plates for 24 h, before the addition of PBS or 10 μM concentrations of R848, free 3M-052 or the 3M-silicasome for a further 21 h. Immature BMDCs (5×10^5 cells/well) were cultured in 24-well plates, receiving the same dose of R848, free 3M-052, and 3M-silicasome for 21 h. […]
(§2) For flow cytometry analysis of surface markers, cells were washed with cell staining buffer, before staining RAW264.7 cells with anti-CD80 or BMDCs with FITC-conjugated anti-CD11c and anti-CD80 on ice, according to the manufacturer's instructions. The assessment of the differentiation and activation markers were evaluated by flow cytometry (LSRFortessa; BD Biosciences), analyzed by FlowJo software.

Data set [4] has as its system murine bone marrow-derived dendritic cells (BMDCs). In words: BMDC activation (flow cytometry, IL-12p40 and TNF-α ELISA). The format is cell-based. The settings on record: 10 μM, 21 h. As to the method: as §1
Bone marrow-derived dendritic cells (BMDCs) were prepared according to our established procedure, with a slight modification.^[42] Bone marrow cells flushed from the femur and tibia of B6/129 mice were collected and red blood cells were lysed by incubating in ACK Lysing Buffer. […]
as §2
Background: A flow cytometer gives signals particle by particle.

The subject of data set [5] is LN-resident dendritic cells (LN-DCs). In words: Subcutaneous KPC tumor model, flow cytometry of inguinal lymph node dendritic cells. The format is in vivo, B6129SF1/J mice. The settings on record: inguinal lymph nodes. The source says:
Subcutaneous tumor implantation in the rear animal flank allows lymphatic drainage to the regional inguinal lymph nodes (LNs), which were harvested to assess therapeutic impact on LN-resident dendritic cells (LN-DCs). This reasoning is premised on the possibility that LN participation in the cancer immunity cycle may be able to strengthen the ICD response by increasing recruitment of newly-activated cytotoxic T-cells back to the principal tumor site. Following inguinal LN harvesting and cellular release, initial flow cytometry gating selected singlet live cells (FIG. 26). Further gating on the CD11c^+/CD45^+ DC subset was used to quantify CD80 and CD86 expression, representative of the surface receptors on an activated DC subset, participating in T-cell activation. […] We also obtained evidence that the response boosting involves LNDC participation as a key component of the cancer immunity cycle.
Following animal sacrifice, photographs were obtained of the harvested tumors, which were subsequently fixed in 10% formalin for IHC staining by the UCLA Translational Pathology Core Laboratory. Image processing was performed using Aperio ImageScope software (Leica). IHC analysis was performed to assess tumor staining intensity for CD8 and FoxP3. Additionally, we assessed the immune response in the draining inguinal lymph nodes (LNs) harvested from the sacrificed animals. […]

Data set [6] is described as follows: Subcutaneous KPC tumor model, body weight and blood parameters (safety). The conditions noted are these: blood on day 21, 4 IV injections, 3M-052 2 mg/kg, IRIN 40 mg/kg. The class given is in vivo, B6129SF1/J mice. As to the method:
Table 10. A subcutaneous KPC tumor model was established in B6129SF1/J mice. […] Blood was collected from the sacrificed animals on day 21. The biochemical parameters were assayed by UCLA Division of Laboratory Animal Medicine (DLAM) diagnostic laboratory services. These parameters include white blood cell (WBC), alkaline phosphatase (ALP), aspartate aminotransferase (AST), alanine aminotransferase (ALT), blood urea nitrogen (BUN), creatinine, calcium, and phosphorus.
A subcutaneous KPC tumor model was established in immunocompetent B6129SF1/J mice, using protocols approved by the UCLA Animal Research Committee. Briefly, 100 μL of a DMEM/Matrigel (1:1 v/v) suspension, containing 1×10^6 KPC cells, was subcutaneously injected into the right flank of female B6129SF1/J mice, 8-10 weeks old. […] Injections were given every 3-4 days, using the dosing schedule that delivers the equivalent of 2 mg/kg and 40 mg/kg, respectively, for 3M-052 and IRIN. Subcutaneous KPC tumor size and animal weight were monitored every 2 days. The tumor size was calculated according to the formula: (Width^2×Length)/2.
We also collected blood for separating serum after centrifugation at 3500 rpm for 20 min. The following biochemical parameters were assayed by UCLA Division of Laboratory Animal Medicine (DLAM) diagnostic laboratory services: white blood cell (WBC), alkaline phosphatase (ALP), aspartate aminotransferase (AST), alanine aminotransferase (ALT), blood urea nitrogen (BUN), creatinine, calcium, and phosphorus.

Data set [7] can be described thus: Pharmacokinetics of 3M-052 and IRIN in plasma (HPLC). The format is in vivo, healthy B6129SF1/J mice. The settings on record: single IV, 3M-052 2 mg/kg, IRIN 40 mg/kg.
Protocol: Free 3M-052 and IRIN were extracted by methanol and measured by HPLC.
The harvested tumor and organ samples, collected in the drug biodistribution experiment, were weighed and homogenized. The collected plasma, tumor, and organ homogenates were extracted in methanol, using 1:5, 1:4, and 1:3 v/v dilutions, respectively. The extracts were vortexed for 20 s and centrifuged at 13000 rpm for 10 min, following which the drug-containing supernatants were filtrated through 0.22 μm filters to perform HPLC analysis. The HPLC system is operated by a Knauer Smartline Pneumatic Pump, C18 column, K-2600 spectrophotometer, and Gina data acquisition software. The mobile phase consisted of mobile phase A (0.01% trifluoroacetic acid in water) and mobile phase B (0.01% trifluoroacetic acid in methanol) as 70% A and 30% B (v/v). A 20 μL of the sample was injected to measure the 3M-052 and IRIN absorptions at 320 and 360 nm. The 3M-052 and IRIN standard curves were generated over the maximal concentrations of 40 and 100 μg/mL respectively.
Data set [8] deals with subcutaneous KPC tumor. The data set can be described thus: Subcutaneous KPC tumor model, tumor growth (3M-052/IRIN carriers). The settings on record: for Inhibition of tumor growth compared to saline: day 20, p<0.001.
Protocol: The schematic in FIG. 6, panel A depicts the treatment outline for conducting the subcutaneous KPC tumor experiment. […] Tumor-bearing mice were randomly divided into 5 groups (n=6 or 7), which received IV administration of the different treatment modalities, every 3-4 days on 4 occasions. […] IRIN was administered at 40 mg/kg while the 3M-052 dose was delivered at 2 mg/kg. FIG. 6, panel B, depicts the average subcutaneous KPC tumor growth kinetics, as determined by tumor volume. Tumor size was measured every 2 days, and tumor volume was calculated by the formula: tumor volume (mm^3)=(length in mm)×(width in mm)^2/2.
KPC cells were subcutaneously injected into the right flank of female B6129SF1/J mice for in vivo experimentation. […] Subcutaneous tumor sizes were monitored every 2 days.
Data set [9] relates to KPC cells. The data set can be described thus: In vitro killing of KPC cells, CCK-8 assay. The format is cell-based, murine. The settings on record: 50-500 μM IRIN, 48 h. As to the method:
20 μL of CCK-8 solution was added to each well and the plates were incubated for an additional 1-2 h in an incubator. The absorbance of each well was assessed at 450 nm in a microplate reader. Cytotoxicity (% dead cells) was calculated using the formula: (ODsample−ODblank)/(ODcontrol−ODblank)×100.
For orientation: Tetrazolium assays rely on reduction of a dye to a coloured formazan, in cell work by metabolically active cells.

Data set [10] relates to orthotopic KPC-luc tumor. The data set can be described thus: Orthotopic KPC-luc tumor model, efficacy (IVIS bioluminescence, tumor weight, metastasis). The class given is in vivo, B6129SF1/J mice.
Protocol: FIG. 8, panel A, depicts the experimental outline of the study conducted by orthotopic implantation KPC-luc tumor cells in the pancreatic tail of syngeneic mice. In brief, 50 μL of PBS/Matrigel (6:4 v/v), containing 0.8×10^6 KPC-luc cells was orthotopically injected into the tail of the pancreas of female B6129SF1/J mice 8 days before the onset of treatment. […] FIG. 8, panel C depicts the average quantitative tumor bioluminescence in each group at day 21, as calculated by IVIS software. **p<0.01.
Mice were sacrificed on day 21. FIG. 8, panel D, depicts the IVIS imaging performed on the ex vivo explanted tumor tissues and potential metastatic organs on day 21. […] FIG. 8, panel G depicts animal body weights over a time period of 21 days.
50 μL of a DMEM/Matrigel (6:4 v/v) suspension, containing 8×10^5 KPC-luc cells, was injected into the tail of the pancreas in female B6129SF1/J mice by a survival surgery procedure. […] The dose equivalents of 3M-052 and IRIN were 2 mg/kg and 40 mg/kg per dose, respectively. Animal weight was monitored every 2 days.
To perform the bioluminescence imaging of the luciferase-expressing tumors, mice were injected intraperitoneal with 50 mg/kg D-Luciferin on day 7, 15, 18, and 21. Ex vivo IVIS images of tumors and major organs, collected from sacrificed animals, were obtained on day 21. In addition, we also obtained photographs and weighed the harvested tumors, which were subsequently fixed in 10% formalin for the performance of IHC staining.
In data set [11] the test system is subcutaneous KPC tumor. In words: IHC of T lymphocytes and perforin in KPC tumors (lipo-LXA4-IRIN study). The class given is in vivo, B6129SF1/J mice. The conditions noted are these: normalized over no treatment control.

As for `CCCCC[C@H](O)/C=C/C=C\C=C\C=C\[C@@H](O)[C@@H](O)CCCC(=O)O` [LXA4, lipoxin A4], the IL-6 release entry in data set [1] is listed as “significantly inhibited IL-6 release in a concentration-dependent manner”.
Consider `CC(=O)O[C@@]12CO[C@@H]1C[C@H](O)[C@@]1(C)C(=O)[C@H](O)C3=C(C)[C@@H](OC(=O)[C@H](O)[C@@H](NC(=O)OC(C)(C)C)c4ccccc4)C[C@@](O)([C@@H](OC(=O)c4ccccc4)[C@H]21)C3(C)C` [docetaxel], for which the Ethanol solubility in [2] is reported as ~100 mg/mL.
In the case of `CCCCCCCCCCCCCCCCCC(=O)NCCCCOn1c(CCCC)nc2c(N)nc3ccccc3c21` [free 3M-052, Telratolimod], the “CD80 cell surface expression” value in data set [3] is given as “significant increase in cell surface expression of a maturation marker”. The “IL-12p40 and TNF-α release” value in [3] (ELISA) is listed as “higher responses”. In addition, the “CD80 cell surface expression” value in data set [4] is reported as “significant increase in cell surface expression of a maturation marker”. Besides, in [4] (ELISA), the “IL-12p40 and TNF-α release” value is “higher responses”. Besides, the “CD80 and CD86 expression in CD11c+/CD45+ population” value in data set [5] (4 rounds of treatment) is recorded as “up-regulated”. Further, in data set [5] (day 21, compared to saline and free IRIN), the “Percentage of CD45+/CD11c+ LN-DCs” value is reported as “increase in the percentage of CD45^+/CD11c^+ LN-DCs”. Besides, in data set [6], the ALP is 64.3 ± 7.6 U/L, the ALT is 32.3 ± 11.9 U/L, the AST is 95.0 ± 14.0 U/L and the BUN amounted to 16.0 ± 2.0 mg/dL. For the same compound, in [6], the Calcium is 8.7 ± 0.2 mg/dL, the Creatinine is 0.0 ± 0.0 mg/dL, the Phosphorous was found to be 7.2 ± 1.3 mg/dL and the WBC is 3.5 ± 0.1 10^3/μL. Further, the “Clearance from the blood circulation” value in data set [7] is recorded as “rapidly cleared”. The “Effect on tumor volume growth” value in data set [8] (IV every 3-4 days x4, 3M-052 2 mg/kg, IRIN 40 mg/kg) was “modest effects”. The “Inhibition of tumor growth compared to saline” value in data set [8] is recorded as “statistically significant compared to the saline control”. In data set [8] (tumor volume, comparison among treatment groups), the “Inhibition of tumor growth compared between treatments” value is reported as “significantly reduced compared to treatment with single-drug or dual-drug silicasomes”.
Consider `CCc1c2c(nc3ccc(OC(=O)N4CCC(N5CCCCC5)CC4)cc13)-c1cc3c(c(=O)n1C2)COC(=O)[C@]3(O)CC` [free IRIN, Irinotecan], for which the “Cytotoxicity to KPC cells” value in data set [9] is “dose-dependent cytotoxicity, with a steeper decline in viability”. Besides, in [6], the ALP is given as 91.0 ± 1.7 U/L, the AST is on record as 66.3 ± 22.2 U/L, the BUN worked out at 17.0 ± 1.0 mg/dL and the Calcium is reported as 8.9 ± 0.1 mg/dL. Besides, in data set [6], the Creatinine is 0.0 ± 0.1 mg/dL, the Phosphorous was determined as 7.4 ± 0.5 mg/dL and the WBC is 3.9 ± 0.5 10^3/μL. Also, the Tumor bioluminescence intensity result in [10] (day 21, IV every 3 days x4, compared to saline or free IRIN) is “little effect on orthotopic tumors”. Also, the “Metastatic spread to surrounding organs” value in data set [10] (ex vivo IVIS imaging, day 21) was “same metastatic burden; also recorded: evidence for splenic involvement”. In data set [11], the Perforin signal entry is listed as “increase in the perforin levels compared to the no-treatment control”. Also, the “Inhibition of tumor growth compared to saline” value in data set [8] is reported as “statistically significant compared to the saline control”.
Regarding `O=C1c2c(O)ccc(O)c2C(=O)c2c(NCCNCCO)ccc(NCCNCCO)c21` [mitoxantrone], the Water solubility in data set [2] (drugbank) was 89 mg/mL.
